This is an account of results in patent US20200031920A1, “Combination Therapy for Treating Cancer” (The George Washington University, priority 2017, published 2020).

“Also recorded” adds a separate entry of the source.

Format in all cases: cell-based
The subject of series [1] is SKOV3 CR cells. In words: cell viability / proliferation (SRB) assay, cisplatin resistant SKOV3 CR cells. On the procedure: (§1) FIG. 1 is a line graph showing the proliferation of SKOV3 parental and SKOV3 CR cells treated with increasing concentrations of cisplatin for five days. Data are represented as mean±SD from three independent experiments performed in triplicate. Indicated IC50 values represent the mean of two independent experiments performed in triplicate.
(§2) FIG. 13 is a line graph showing the proliferation of SKOV3 parental and SKOV3 CR cells treated with increasing concentrations of cisplatin and 0.4 μM LY2784544 for five days. Data are represented as mean±SD from three independent experiments performed in triplicate.
(§3) Cisplatin resistant ovarian cancer cell lines were generated using procedures as described previously. Jazaeri et al., Mol Cancer Ther 12: 1958-1967 (2013). Ovarian cancer cells SKOV3 were cultured in the medium with cisplatin (Sigma-Aldrich) for three weeks, followed by release to cisplatin-free medium for another three weeks. In the next cycle, the cisplatin treatment was repeated in the medium with an increased concentration of cisplatin. After six-cycle treatment, cells were identified that were able to grow in the medium with a high concentration of cisplatin. These cisplatin resistant cells were named as SKOV3 CR (FIG. 1).
(§4) The results obtained from combinational HTS were confirmed by testing whether LY2784544 overcomes cisplatin resistance in ovarian cancer cells using multiple assays. […] The Combination index (CI), which quantitatively describes the interaction between drugs including synergism (CI<1), additive effect (CI=1), and antagonism (CI>1), was calculated.

For the next series, the system named is PEO4 cells. Put plainly: cell proliferation assay, PEO4 cells. The text has this: FIG. 63 is a line graph showing the proliferation of PEO1 and PEO4 cells treated with increasing concentrations of cisplatin for 5 days. Data are represented as mean±SD from three independent experiments performed in triplicate. Indicated IC50 values represent the mean of […] independent experiments performed in triplicate.
FIG. 64 is a bar graph showing the synergistic effects of LY2784544 and cisplatin in PEO4 cells. CI values are presented above the bars. CI<1 indicates synergism, CI=1 indicates additive effect, and CI>1 indicates antagonism.
For ovarian cancer, recurrence more than 12 months after initial chemotherapy was considered as platinum sensitive. PEO4 was derived from the patient 10 months later when they had progressive disease and had become cisplatin resistant.

Another series relates to SKOV3 cells. Put plainly: cell viability / proliferation (SRB) assay, SKOV3 parental cells. On the procedure: as §1, §2, §3, §4
Another series deals with IGROV1 CR cells. In words: cell proliferation assay, cisplatin resistant IGROV1 CR cells. The text has this: FIG. 60 is a line graph showing the proliferation of IGROV1 parental and IGROV1 CR cells treated with increasing concentrations of cisplatin for 5 days (left). Data are represented as mean±SD from three independent experiments performed in triplicate. Indicated IC50 values represent the mean of two independent experiments performed in triplicate.
FIG. 61 is a bar graph showing the synergistic effects of LY2784544 and cisplatin in IGROV1 CR cells (right). CI values are presented above the bars. CI<1 indicates synergism, […] indicates additive effect, and CI>1 indicates antagonism.
Using a similar approach as described in FIG. 1, another cisplatin resistant ovarian cancer cell line IGROV1 CR was raised from its cisplatin sensitive parental cell IGROV1 cells. […] The cell proliferation of IGROV1 CR cells treated with cisplatin, LY2784544 or both LY2784544 and cisplatin was examined.

Series [2] deals with SKOV3 CR cells. In words: apoptosis (Annexin V and Propidium Iodide staining, cleaved PARP). On the procedure:
FIG. 2 is an illustration showing representative flow plots (A) and a bar graph (B) of SKOV3 and SKOV3 CR cells treated with cisplatin for 48 h and analyzed for Annexin V and Propidium Iodide staining by flow cytometry (A) and quantified apoptosis percentage (B). Data are represented as mean±SD from three independent experiments performed in triplicate. **p<0.01. FIG. 23 is an illustration showing the immunoblotting for the indicated targets in SKOV3 CR cells treated with vehicle (DMSO), 3 μM LY2784544, 5 μM cisplatin, or the combination for 48 hr. FIG. 24 is an illustration showing representative flow plots of SKOV3 CR cells treated with vehicle, 3 μM LY2784544, 5 μM cisplatin, or the combination (combo) for 48 hr and analyzed for Annexin V and Propidium Iodide staining by flow cytometry. Since cisplatin exerts its anticancer effect mainly through its ability to cause DNA damage, resulting in apoptosis, the apoptotic cells in both SKOV3 and SKOV CR cells were measured using Annexin V and Propidium Iodide staining. […] To test whether SKOV3 CR cells are resistant to cisplatin-induced apoptosis in vivo, both SKOV3 and SKOV3 CR cells were injected into nude mice to form xenograft tumors. Once the tumor size reached 100-150 mm^3, cisplatin was given to mice by intraperitoneal injections twice a week for 2 weeks. Three days after treatment, the apoptosis in tumors was examined by TUNEL staining. […] Currently, carboplatin is a more commonly used platinum drug employed clinically to treat ovarian patients. Ozols et al., J Clin Oncol 21: 3194-3200 (2003). Thus, it was tested whether SKOV3 CR cells are also resistant to carboplatin (Sigma-Aldrich). The effects of LY2784544 on the JAK2/STAT5 signaling pathway in both SKOV3 and SKOV3 CR cells were examined.

Series [3] has as its system phosphorylation of JAK2 (Y1007/1008) and STAT5 (Y694). In words: western blot of JAK2/STAT5 signaling. On the procedure:
FIG. 22 is an illustration showing that LY2784544 down-regulates JAK2/STAT5 signaling in SKOV3 CR cells. Cells were treated with the indicated concentrations of LY2784544 for 48 hr.
FIG. 23 is an illustration showing the immunoblotting for the indicated targets in SKOV3 CR cells treated with vehicle (DMSO), 3 μM LY2784544, 5 μM cisplatin, or the combination for 48 hr.
To investigate the molecular mechanism by which the JAK2-mediated pathway regulates cisplatin resistance of ovarian cancer, the activation of the JAK2-mediated pathway in paired sensitive cell line (SKOV3, IGROV1, PEO1) and resistant cell lines (SKOV3 CR, IGROV1 CR, PEO4) was examined by western blot. Compared to cisplatin sensitive cells SKOV3 or IGROV1, the JAK2 protein levels are not changed in cisplatin resistant cells SKOV3 CR, IGROV1 CR, or PEO4.
The effects of LY2784544 on the JAK2/STAT5 signaling pathway in both SKOV3 and SKOV3 CR cells were examined.

[4] abbreviates: SKOV3 CR cells, 3 μM LY2784544 plus 5 μM cisplatin, 48 hr.

Consider `Cc1cc(Nc2cc(CN3CCOCC3)c3nc(C)c(Cc4ccc(Cl)cc4F)n3n2)n[nH]1` [LY2784544], for which, in the series with SKOV3 CR cells [1] (SKOV3 CR cells), the “cisplatin IC50 shift ability (comparison of the three hits)” value is on record as “better cisplatin IC50 shift ability than MLN4924 or NSC319726”. Moreover, the “sensitization of SKOV3 CR cells to cisplatin (proliferation)” value in the series on SKOV3 CR cells [1] (combination with cisplatin at different doses, FIG. 13: 0.4 μM LY2784544, five days) was “significantly increased the sensitivity of SKOV3 CR cells to cisplatin; also recorded: re-sensitized SKOV3 CR cells to cisplatin”. Besides, the “medium CI (combination index)” value with SKOV3 CR cells [1] (combination with cisplatin, SKOV3 CR cells, CI<1 synergism) was 0.69; in the series on PEO4 cells (combination with cisplatin, PEO4 cells), 0.34; in the series with SKOV3 cells (combination with cisplatin, SKOV3 cells, CI<1 synergism) it was 0.93; with IGROV1 CR cells (combination with cisplatin, IGROV1 CR cells), 0.71. Also, the “effect on cell proliferation of SKOV3” value in the series with SKOV3 cells (medium with cisplatin or without cisplatin) is “did not affect the cell proliferation of SKOV3”. The “apoptosis (cleaved PARP), single agent” value in the series on SKOV3 CR cells [2] (SKOV3 CR cells, 3 μM LY2784544, 48 hr) is listed as “did not cause apoptosis”. Also, the “apoptosis (cleaved PARP), combination with cisplatin” value in the series on SKOV3 CR cells [2] (setting [4]) is “induced apoptotic cell death”. For the same compound, in the series on SKOV3 CR cells [2] (setting [4]), the “apoptotic cells (Annexin V and Propidium Iodide), combination with cisplatin” value was “significant increase of apoptotic cells”. Also, in series [3] (both SKOV3 and SKOV3 CR cells, 48 hr), the “phosphorylation of JAK2 and STAT5” value is listed as “significantly reduced the phosphorylation of JAK2 as well as the phosphorylation of STAT5”.

The IC50 is the midpoint of a concentration-inhibition curve. As for `N.N.[Cl][Pt][Cl]` [cisplatin], the IC50 in the series with SKOV3 CR cells [1] (SKOV3 CR cells, 5 days) came to 10400 nM; in the series on PEO4 cells (PEO4 cells, 5 days), 1990 nM; in the series on SKOV3 cells (SKOV3 parental cells, 5 days) it was 2000 nM; in the series with IGROV1 CR cells (IGROV1 CR cells, 5 days) it was 1500 nM. In the series on PEO4 cells (5 days), the “fold increase of IC50, PEO4 vs PEO1” value stood at 6.2 fold. Moreover, the “fold increase of IC50, IGROV1 CR vs parental IGROV1” value in the series with IGROV1 CR cells (5 days) was 2.9 fold. Moreover, the “apoptosis, SKOV3 versus SKOV3 CR cells” value with SKOV3 CR cells [2] (cisplatin for 48 h, Annexin V and Propidium Iodide staining) is on record as “induced more apoptosis in SKOV3 cells than in SKOV3 CR cells”. In addition, the “JAK2/STAT5 signaling after cisplatin treatment” value in series [3] (SKOV3 parental cells, various small doses and times of cisplatin) is on record as “JAK2/STAT5 signaling was activated”.
